According to patent US8198280B2, “N-hydroxyamide derivatives and use thereof” (Merck Serono SA, priority 2005, dated 2012):

What was measured:
metalloelastase (MMP-12) = metalloelastase (MMP-12) (Homo sapiens, UniProt P39900); assay: MMP-12 enzyme inhibition assay (coumarin-labelled peptide substrate); assay type: biochemical; details: fluorogenic substrate McaPLGLDpaAR, 37° C., 2 hours
Experimental: (§1) Compounds of the invention were tested for inhibitory activity against 92 kDa gelatinase (MMP-9) in an assay using a coumarin-labeled peptide substrate, (7-methoxycoumarin-4-yl)acetyl-Pro-Leu-Gly-Leu-(3-[2,4-dinitrophenyl]-L-2,3-diaminopropionyl)-Ala-Arg-NH2 (McaPLGLDpaAR) (Knight et al, 1992, FEBS Lett., 263-266).
(§2) Stock solutions were made up as follows: Assay Butter: 100 mM Tris-HCl pH 7.6 containing 100 mM NaCl, 10 mM CaCl2, and 0.05% Brij 35.
(§3) Substrate: 0.4 mM McaPLGLDpaAR (from Bachem) (0.437 mg/ml) stock solution in 100% DMSO (stored at −20° C.). Dilute to 8 μM in assay butter.
(§4) Enzyme: Recombinant human 92 kDa gelatinase (MMP-9; APMA (4-aminophenyl mercuric acetate)-activated if necessary) appropriately diluted in assay butter.
(§5) Test Compounds were prepared initially as 10 mM compound solution in 100% DMSO, diluted to 1 mM in 100% DMSO, then serially diluted 3-fold in 100% DMSO across columns 1-10 of a 96-well microtitre plate Assay concentration range, 100 μM (column 1) to 5.1 nM (column 10).
(§6) The assay was performed in a total volume of 100 μL per well in 96-well microtitre plates. Activated enzyme (20 μL) was added to the wells followed by 20 μL of assay butter. Appropriate concentrations of test compounds dissolved in 10 μL of DMSO were then added followed by 50 μL of McaPLGLDpaAR ([…], prepared by dilution of DMSO stock in assay butter). For each as say ten concentrations of test compound were examined in duplicate. Control wells lack either enzyme or test compound. The reactions were incubated at 37° C. for 2 hours. The fluorescence at 405 nm was measured immediately with an SLT Fluostar fluorometer (SLT Labinstruments GmbH, Grodig, Austria) using 320 nm excitation, without stopping the reaction.
(§7) The effect of the test compound was determined from the dose response curve generated by the 10 duplicate concentrations of inhibitor. The IC50 (the concentration of compound required to give a 50% decrease in enzyme activity) was obtained by fitting data to the equation, Y=a+((b−a)/(1+(c/X)^d)). (Y=inhibition achieved for a particular dose; X=the dose in nM; a=minimum y or zero % inhibition; b=maximum y or 100% inhibition; c=is the IC50; d=is the slope). The result was rounded to one significant figure.
Compounds of the invention were tested for inhibitory activity against metalloelastase (MMP-12) in an assay using a coumarin-labelled peptide substrate, (7-methoxycoumarin-4-yl)acetyl-Pro-Leu-Gly-Leu-(3-[2,4dinitrophenyl]-L-2,3-diaminopropionyl)-Ala-Arg-NH2 (McaPLGLDpaAR) (Knight et al, 1992, above). The protocol for this assay was as described for the MMP-9 assay above.

[1] = test system: IL-2-induced peritoneal recruitment of lymphocytes; assay: IL-2-induced peritoneal recruitment of lymphocytes; assay type: in vivo, C3H/HEN mice; details: mice, 1 mg/kg po, 15 min prior to IL-2; cells collected 24 h after IL-2
Experimental: Administration of IL-2 intraperitoneally causes migration of lymphocytes into the intraperitoneal cavity. This is a model for the cellular migration that occurs during inflammation.
C3H/HEN mice (Elevage Janvier, France) are intraperitoneally injected with IL-2 (Serono Pharmaceutical Research Institute, 20 μg/kg, in saline).
Compounds of the invention are suspended in 0.5% carboxymethylcellulose (CMC)/0.25% tween-20 and are administered by s.c. or p.o. route (10 ml/kg) 15 min prior to administration of IL-2.
Twenty-four hours after administration of IL-2, peritoneal white blood cells are collected by 3 successive lavages of the peritoneal cavity with 5 ml phosphate buffered saline (PBS)-1 mM EDTA (+4° C.). The suspension is centrifuged (1700 g×10 min at +4° C.). The resulting pellet is suspended in 1 ml PBS-1 mM EDTA.
Lymphocytes are identified and counted using a Beckman/Coulter counter.
The animals are divided into 6 groups (6 mice each group):
Group 1: (baseline) receives 0.5% CMC/0.25% tween-20 (vehicle of compound of the invention) and saline (vehicle of IL-2);
Group 2: (control IL-2) receives 0.5% CMC/0.25% tween-20 and injection of IL-2;
Group 3: Experimental group (Compound of the invention Dose 1) receives a compound of the invention and injection of IL-2; […]
Inhibition of lymphocyte recruitment is calculated as follows: […]

collagenase (MMP-1) = molecular target: T1, collagenase (MMP-1) (Homo sapiens, UniProt P03956); assay: MMP-1 enzyme inhibition assay (coumarin-labelled peptide substrate); assay type: biochemical; details: fluorogenic substrate McaPLGLDpaAR, 37° C., 2 hours
T1 sequence (P03956 100-469): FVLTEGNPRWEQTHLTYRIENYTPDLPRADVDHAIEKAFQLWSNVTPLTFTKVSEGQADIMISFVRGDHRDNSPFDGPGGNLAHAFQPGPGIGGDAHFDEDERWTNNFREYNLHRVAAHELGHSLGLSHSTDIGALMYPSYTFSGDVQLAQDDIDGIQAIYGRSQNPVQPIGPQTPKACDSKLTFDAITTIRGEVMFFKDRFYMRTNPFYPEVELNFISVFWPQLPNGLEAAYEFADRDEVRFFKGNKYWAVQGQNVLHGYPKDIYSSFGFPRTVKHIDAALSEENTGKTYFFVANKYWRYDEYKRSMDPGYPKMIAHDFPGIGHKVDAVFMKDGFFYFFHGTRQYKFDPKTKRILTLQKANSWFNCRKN
Experimental: as §1, §2, §3, §4, §5, §6, §7
Compounds of the invention were tested for inhibitory activity against collagenase (MMP-1) in an assay using a coumarin-labelled peptide substrate, (7-methoxycoumarin-4-yl)acetyl-Pro-Leu-Gly-Leu-(3-[2,4-dinitrophenyl]-L-2,3diaminopropionyl)-Ala-Arg-NH2 (Mca PLGLDpaAR) (Knight et al, 1992, above). The protocol for this assay was as described for the MMP-9 assay above.

metalloelastase (MMP-12), sequence (P39900 106-470): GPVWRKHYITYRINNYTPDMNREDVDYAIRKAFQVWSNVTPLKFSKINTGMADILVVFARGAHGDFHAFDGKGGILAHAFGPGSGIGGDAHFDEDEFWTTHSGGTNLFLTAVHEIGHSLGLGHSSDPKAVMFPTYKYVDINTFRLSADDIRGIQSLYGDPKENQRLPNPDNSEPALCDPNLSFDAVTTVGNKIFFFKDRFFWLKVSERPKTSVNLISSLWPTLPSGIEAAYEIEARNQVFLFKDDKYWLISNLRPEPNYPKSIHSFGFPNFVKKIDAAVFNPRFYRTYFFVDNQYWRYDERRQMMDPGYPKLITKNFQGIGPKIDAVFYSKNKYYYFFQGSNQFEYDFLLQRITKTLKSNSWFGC

| SMILES | IC50 (metalloelastase (MMP-12)) | % inhibition of IL-2-induced peritoneal recruitment of lymphocytes [1] | IC50 (collagenase (MMP-1)) |
| --- | --- | --- | --- |
| O=C(NO)[C@@H](O)CC(=O)N1CCN(c2ccc(F)cc2)CC1 [Example 2, (2S)-4-[4-(4-fluorophenyl)piperazin-1-yl]-N,2-dihydroxy-4-oxobutanamide] | 58 nM | 51% | > 5000 nM |
| C[C@@H]1CN(c2ccc(OC(F)(F)F)cc2)CCN1C(=O)C[C@H](O)C(=O)NO [Example 3, (2S)—N,2-dihydroxy-4-{(2R)-2-methyl-4-[4-(trifluoromethoxy)phenyl]piperazin-1-yl}-4-oxobutanamide] | 5 nM | – | > 5000 nM |
| O=C(NO)[C@H](O)CC(=O)N1CCN(c2ccc(F)cc2)CC1 [Example 1, (2R)-4-[4-(4-fluorophenyl)piperazin-1-yl]-N,2-dihydroxy-4-oxo butanamide] | 264 nM | – | > 5000 nM |
| C[C@@H]1CN(c2ccc(-c3ccccc3)cc2)CCN1C(=O)C[C@H](O)C(=O)NO [Example 4, (2S)-4-[(2R)-4-biphenyl-4-yl-2-methylpiperazin-1-yl]-N,2-dihydroxy-4-oxobutanamide] | 5 nM | – | > 5000 nM |
